Tests used:
[1] = cited from earlier work
[2] = long-term treatment; cited from earlier work
[3] = cited from earlier work; remark: listed apart in the source

SMILES: CC(=O)Oc1ccccc1C(=O)O [aspirin, acetyl salicylic acid]
- solubility in water [1]: does not dissolve in water
- severe gastrointestinal complication [2]: up to 30%
- Buccal absorption (normal buccal pH, no buffer added): 5%
- absorbed (buccal) (pH of 2.5, buffer solution added): 70%
- acetyl salicylic acid reaching the stomach inactivated through deacetylation [3]: At least thirty two

From patent US20100255086A1, “Method for oral mucosal absorption of acetyl salycylic acid” (priority 2009, published 2010)
